Here are results for two molecules from paper PMC2879007 (Biochemical pharmacology, 2010).

In data set [1] the test system is human CYP2D6 PM hepatocytes. Put plainly: 5-MeO-DMT depletion and bufotenine formation in human CYP2D6 PM hepatocytes. To be noted: CYP2D6 PM hepatocytes, even co-incubated with harmaline.
For data set [2], the system named is human CYP2D6 EM hepatocytes. Put plainly: 5-MeO-DMT depletion and bufotenine formation in human CYP2D6 EM hepatocytes. Particulars: CYP2D6 EM hepatocytes.
Data set [3] is described as follows: serum pharmacokinetics in wild-type FVB/N mice. Type of data set: in vivo. To be noted: for Cmax / MRT / Tmax / half-life: FVB/N (wild-type), mouse, ip.
Data set [4] in a line: serum pharmacokinetics in Tg-CYP2D6. The class given is in vivo, mice.
The target in the next data set is purified human MAO-A. To be noted: reversible competitive inhibitor; cited from earlier work.
[5] abbreviates: wild-type mice, 5-MeO-DMT 2 mg/kg i.p., harmaline 5 mg/kg i.p.
[6] abbreviates: Tg-CYP2D6 (CYP2D6-humanized), mouse, serum, ip, 2 mg/kg.
Setting [7] is: Tg-CYP2D6 (CYP2D6-humanized), mouse, serum, ip, 20 mg/kg.

Turning to `CN(C)CCc1c[nH]c2ccc(O)cc12` [Bufotenine, 5-hydroxy-N,N-dimethyltryptamine], the “bufotenine formation from 5-MeO-DMT” value in data set [1] is listed as “could not produce detectable bufotenine”; in data set [2], “only detected in incubations with CYP2D6 EM hepatocytes”. Further, the Cmax in data set [3] (serum, 2 mg/kg) stood at 51.4 ± 9.1 nM; in data set [3] (serum, 20 mg/kg), 210 ± 54 nM; in data set [4] (setting [6]), 53 ± 13 nM. Besides, the MRT in data set [3] (serum, 2 mg/kg) was 54.9 min; in data set [3] (serum, 20 mg/kg) it was 55.8 min; in data set [4] (setting [6]) it was 33.7 min; in data set [4] (setting [7]), 52.8 min. In addition, the Tmax is 11.3 min in data set [3] (serum, 2 mg/kg); 21.3 min in data set [3] (serum, 20 mg/kg); 8.8 min in data set [4] (setting [6]); 27.5 min in data set [4] (setting [7]). Moreover, the half-life in data set [3] (serum, 2 mg/kg) was determined as 33 ± 26 min; in data set [3] (serum, 20 mg/kg), 25.4 ± 5.3 min; in data set [4] (setting [6]), 20.7 ± 9.8 min; in data set [4] (setting [7]), 18.5 ± 1.5 min. Besides, the “AUC0→∞” value in data set [3] (serum, wild-type mice, 2 mg/kg 5-MeO-DMT alone i.p.) was determined as 2.69 ± 1.21 µmol·min/L; in data set [4] (serum, Tg-CYP2D6 mice, 2 mg/kg 5-MeO-DMT alone i.p.), 1.82 ± 0.74 µmol·min/L. In addition, the “AUC(Bufotenine)/AUC(5−MeO−DMT)” value in data set [3] (wild-type mice, 2 mg/kg 5-MeO-DMT alone i.p.) is 10.5 ± 4.4%; in data set [3] (wild-type mice, 2 mg/kg 5-MeO-DMT i.p. with 5 mg/kg harmaline i.p. pretreatment) it was 15.1 ± 2.9%; in data set [4] (Tg-CYP2D6 mice, 2 mg/kg 5-MeO-DMT alone i.p.), 8.5 ± 2.8%; in data set [4] (Tg-CYP2D6 mice, 2 mg/kg 5-MeO-DMT i.p. with 5 mg/kg harmaline i.p. pretreatment) it was 24.0 ± 3.3% ^a, ^b. Further, the “increase of Cmax by co-administered harmaline” value in data set [3] (setting [5]) is “about 2.6 fold”. For the same molecule, the “increase of MRT by co-administered harmaline” value in data set [3] (setting [5]) was approximately 1.8 fold. Besides, the “increase of systemic exposure (AUC0→∞) by harmaline pre-treatment” value in data set [3] (setting [5]) is on record as 6.1 fold; in data set [4] (Tg-CYP2D6 mice, 5-MeO-DMT 2 mg/kg i.p., harmaline 5 mg/kg i.p.), 9.9 fold. In addition, the “higher systemic exposure in Tg-CYP2D6 mice than wild-type mice” value in data set [4] (20 mg/kg 5-MeO-DMT i.p.) is 60%.
In the case of `COc1ccc2c3c([nH]c2c1)C(C)=NCC3` [Harmaline], at purified human MAO-A, the inhibitory constant (Ki) is 48 nM.

One may read the Cmax as the maximum level reached in the sampled fluid or tissue. A word on the MRT: it is the average time that molecules of a dose stay in the body. As a reminder, the Tmax is the time from dosing to the highest level. The half-life is the time in which the quantity being followed falls by half. In general, Ki refers to a measure of affinity in units of concentration, obtained from inhibition or displacement.
